How the values were obtained:
DGAT2 [1] = assay: In-vitro inhibitory activity test on target gene DGAT2 in Huh7 cells (siRNA transfection, mRNA by qPCR); assay type: cell-based, human; conditions: Table 3.3
Protocol: The test compound was prepared into a 20 µM mother liquor with PBS.
Huh7 cells. Huh7 cells were cultured in DMEM medium (Gibco article number 11965-092) containing 10% fetal bovine serum (FBS, ExCell Bio article number FSP500), 1% glutamine (GlutaMAX, Gibco article number 35050061), 1% NEAA (gibco article number 11140050), and 1% penicillin-streptomycin (HyClone article number SV30010).
Huh7 cells (2 × 10^4 cells/well) were inoculated into a 96-well plate, and siRNA was transfected into the cells while plating. […] At the same time, a compound-free control group containing RNAiMAX was set up.
24 hrs after transfection, the medium was removed and the cells were collected for RNA extraction. Total RNA was extracted by using RNeasy® 96 Kit (QIAGEN-74182) according to the instructions for use of the kit. cDNA was synthesized by using FastKing RT Kit (with gDNase) (Tiangen-KR116-02) according to the instructions.
The target cDNA was detected by qPCR, and GAPDH cDNA as an internal control was detected in parallel. 8 µL of prepared PCR reaction solution and 2 µL of sample cDNA were added into a 384 well plate. […]
The expression level of the target gene mRNA in each sample was calculated by ΔΔCt relative quantitative method. […]
GraphPad Prism software was used for plotting and analysis, and the inhibition rate was expressed as mean ± SD.

DGAT2 [2] = assay: Inhibition rate on target gene DGAT2 mRNA in primary human hepatocytes (PHHs), free uptake; assay type: cell-based
Protocol: The test compound was prepared into a 100 µM/200 µM mother liquor with PBS.
Human hepatocytes (PHHs). PHHs were revived and cultured in InvitroGRO CP medium (BIOIVT article number S0331) containing 10% fetal bovine serum (FBS, Gibco article number 10091148) and 1% penicillin-streptomycin (PS, HyClone article number SV30010).
PHHs (5.4 × 10^4 cells/well) were inoculated into a 96-well plate, and siRNA was added into the cell while plating. The compound entered the cells through free uptake. […] concentration points (100 nM, 20 nM, 4 nM, 0.8 nM, 0.16 nM, 0.032 nM, and 0.0064 nM) were set for siRNA test, and 2 wells were measured in parallel. At the same time, a compound-free control group containing PBS was set up. The cells were cultured in an incubator at 37°C with 5% CO2.
48 hrs later, the medium was removed and the cells were collected for RNA extraction. Total RNA was extracted by using RNeasy® 96 Kit (QIAGEN-74182) according to the instructions for use of the kit. cDNA was synthesized by using HiScript III RT SuperMix for qPCR (+gDNA wiper) (Vazyme article number R323-01) following the instructions.
The target gen cDNA was detected by qPCR, and the internal reference gene GAPDH cDNA was also detected. 8 µL of prepared PCR reaction solution and 2 µL of sample cDNA were added into a 384 well plate. […]

DGAT2 [3] = assay: Inhibitory activity on the target gene DGAT2 in non-naive Cynomolgus macaque (Example 10, liver biopsy qPCR); assay type: in vivo
Protocol: The in-vivo experimental designs for subcutaneous injection in non-naive Cynomolgus macaque, the administration and the sample collection method were shown in the table below.
The day of administration to non-naive Cynomolgus macaque was defined as day 1, the day before it was day 0, the day after it was day 2, and so on. Each group had 2 animals. On days 1, 4, 8, 15, 22, 29, 36, 43, 50, and 57, the animals in Groups 1 and 2 were injected with the solvent or 4 mg/kg (0.5mL/kg) of the positive reference compound. On days 1 and 29, the animals in Groups 3 to 7 were injected subcutaneously with 0.5 mL/kg of the test compound.
On day 0 (0 h) before administration by SC, and days 7, 15, 28, 57, and 99 after administration, the liver sample was collected. Collection method: The animals was fasted for 12-16 hrs before sample collection. Collection of liver biopsy tissue: The collection process would be operated and recorded according to the SOP of the research institution. The location of the liver was determined by B ultrasound scan, the right liver was mainly used, and the gallbladder and major blood vessels were avoided. The biopsy needle was inserted under the guidance of the B-ultrasound probe. Guided by the image on the B-ultrasound screen, the needle entered the liver away from the gallbladder and major blood vessels, and the materials were sampled by puncture. After biopsy, the biopsy needle was withdrawn and the samples were collected. The obtained samples were immediately immersed in PBS with RNAlater®, and allowed to stand overnight at 4°C. Then the residual liquid was sucked off, and the remainder was stored at -80°C or below until it was transported in the presence of dry ice and detected.
Trizol was homogenized by Qiagen Tissue Lyser II at 26 Hz for 2 min and lyzed at room temperature for 5 min. 1 mL of the supernatant was taken, added to 200 uL of chloroform, shaken for 15 s, allowed to stand for 3 min, and centrifuged. The supernatant was collected, added with an equal volume of isopropanol, and stood overnight at -20°C for precipitation. The precipitate was washed twice with 70%, and dissolved in water without RNase. The concentration of the RNA sample was determined by Nanodrop ONE and diluted to 200 ng/µL with water without RNase for reverse transcription.
The experimental steps of reverse transcription could be made reference to the instruction of HiScript® III RT SuperMix for qPCR (+gDNA wiper). Briefly, a gDNA removal mixture was prepared according to the table below. A mixture (11 µL/sample) of 4 x gDNA wiper Mix and RNase-Free ddH2O and 1000 ng RNA sample (5 µL RNA sample with a concentration of 200 ng/µL) were added to a 96-well PCR reaction plate, incubated at 42°C for 2 min, and cooled on ice. 4 µL 5 x HiScript III qRT SuperMix and the DNA removed product from the previous step were added to a 96-well PCR reaction plate for reverse transcription. Reaction conditions: 37°C for 15 min; and 85°C for 5 sec. The cDNA was stored at 4°C for further analysis.
The method for detecting the expression levels of DGAT2 and GAPDH genes in the liver of Cynomolgus macaque by quantitative PCR was briefly described as follows: As shown in the table below, a qPCR reaction mixture was prepared, and 2 µL of a cDNA sample diluted 2 times with RNase-free water was added for PCR reaction. Reaction conditions: 95°C for 10 min; and 40 cycles of 95°C for 15 sec, and 60°C for 1 min.
All values were normalized to the average of the group on day 0.

[4] = 3mpk subcutaneous on days 1 and 29, normalized to day 0
[5] = 10mpk subcutaneous on days 1 and 29, normalized to day 0

## dS319: sense (invAb)*acaccauaGfAfCfuauuugcuua[L96]; anti-sense Vpu*Af*a*GfcAfaauagUfcUfaUfgGfuGf* u
DGAT2 [1]
  IC50: 16.3 pM
DGAT2 [2]
  IC50: 62.3 pM
DGAT2 [3]; [4]
  Average inhibition rate, % (D28): 86.6%
  Average inhibition rate, % (D56): 91.1%
  Average inhibition rate, % (D99): 72.2%
DGAT2 [3]; [5]
  Average inhibition rate, % (D28): 96.0%
  Average inhibition rate, % (D56): 97.9%
  Average inhibition rate, % (D99): 89.1%
